# Source: patent US8247380B2, “Alpha 1-acid glycoprotein, alpha 2-HS glycoprotein, alpha 1-antitrypsin, and fragments thereof induce apoptosis in cancer cell lines” (Ambryx Biotechnology, D.C., priority 1997, dated 2012)
# “Also recorded” adds a separate entry of the source.
# B1: zinc charged alpha 2-HS glycoprotein: alpha 2-HS glycoprotein (Sigma), EDTA treated and charged with zinc acetate (protein, UniProt P02765 19-300; P02765 341-367, looked up)
# Alpha-2-HS-glycoprotein chain … 1: APHGPGLIYRQPNCDDPETEEAALVAIDYINQNLPWGYKHTLNQIDEVKVWPQQPSGELFEIEIDTLETTCHVLDPTPVARCSVRQLKEHAVEGDCDFQLLKLDGKFSVVYAKCDSSPDSAEDVRKVCQDCPLLAPLNDTRVVHAAKAALAAFNAQNNGSNFQLEEISRAQLVPLPPSTYVEFTVSGTDCVAKEATEAAKCNLLAEKQYGFCKATLSEKLGGAEVAVTCMVFQTQPVSSQPQPEGANEAVPTPVVDPDAPPSPPLGAPGLPPAGSPPDSHVL
# Alpha-2-HS-glycoprotein chain … 2: TVVQPSVGAAAGPVVPPCPGRIRHFKV
# modifications: zinc charged
# notes: alpha 2-HS glycoprotein (Sigma), EDTA treated and charged with zinc acetate
# B2: fetuin: bovine fetuin from fetal bovine serum by the modified Spiro method with zinc acetate (Section 4A) (protein, UniProt P12763 19-359, looked up)
# Alpha-2-HS-glycoprotein: IPLDPVAGYKEPACDDPDTEQAALAAVDYINKHLPRGYKHTLNQIDSVKVWPRRPTGEVYDIEIDTLETTCHVLDPTPLANCSVRQQTQHAVEGDCDIHVLKQDGQFSVLFTKCDSSPDSAEDVRKLCPDCPLLAPLNDSRVVHAVEVALATFNAESNGSYLQLVEISRAQFVPLPVSVSVEFAVAATDCIAKEVVDPTKCNLLAEKQYGFCKGSVIQKALGGEDVRVTCTLFQTQPVIPQPQPDGAEAEAPSAVPDAAGPTPSAAGPPVASVVVGPSVVAVPLPLHRAHYDLRHTFSGVASVESSSGEAFHVGKTPIVGQPSIPGGPVRLCPGRIRYFKI
# modifications: zinc
# Columns and labels:
# [1] = test system: Calu-1 (human lung carcinoma); assay: Apoptosis assay, Calu-1 cells; assay type: cell-based; details: for apoptotic activity, panel of cell lines (in words): peptide fragment: 6 hours
# [2] = test system: HL-60 (leukemia) cells; assay: Cell death (apoptosis) assay, HL-60 cells; assay type: cell-based, human; details: for apoptotic activity, panel of cell lines (in words): peptide fragment: 6 hours
# Protocol: Fetuin purified from fetal bovine serum by the procedure described above was dissolved in phosphate buffer saline (PBS). The free Zinc Acetate and Barium Acetate were removed by repetitive concentration. Fetuin was tested in LNCaP and HL-60 cells. […] Fetuin (in 10 μl PBS) at concentration of 100 ng/ml was added 3-4 hours after the cells were seeded.
# [3] = test system: Hs578 Bst (human normal breast); assay: Apoptosis assay, Hs578 Bst cells; assay type: cell-based; details: peptide fragment: 6 hours
# [4] = test system: p3HR-1 (human Burkitt lymphoma); assay: Apoptosis assay, p3HR-1 cells; assay type: cell-based; details: peptide fragment: 6 hours
# [5] = test system: cancer cell lines; assay: Apoptosis assay, cancer cells (cell line not given); assay type: cell-based; details: cancer cells
# [6] = test system: CCD25 Lu (human normal lung); assay: Apoptosis assay, CCD25 Lu cells; assay type: cell-based; details: peptide fragment: 6 hours
# [7] = test system: Hep G2 (Human hepatoma); assay: Apoptosis assay, Hep G2 cells
# [8] = test system: CCD-18 Co (human normal colon fibroblast); assay: Apoptosis assay, CCD-18 Co cells; assay type: cell-based; details: for apoptotic activity, panel of cell lines (in words): peptide fragment: 6 hours
# Excerpt: Zinc charged alpha 1-acid glycoprotein has no effect on CCD 18Co cells (human normal colon fibroblast).
# [9] = test system: HT-29 (human colon adenocarcinoma); assay: Apoptosis assay, HT-29 cells; details: for apoptotic activity, panel of cell lines (in words): peptide fragment: 6 hours
# Protocol: Prostate cancer cell line LNCAP was routinely used for the isolation of Apogen P-1 and Apogen P-2, whereas leukemia cell line HL-60 was used for the isolation of Apogen L. The methods of assays were as follows: LNCAP or HL-60 (1,000 cells) was seeded in 10 microliters RPMI containing 15% or 20% Fetal bovine serum, penicillin and streptomycin at 37 degrees, 5% CO2 in Microtray plates (25 μl wells, Robbins Scientific Corp.). The tested sample (10 μl) was added 3-4 hours after cells were seeded. After incubation of the tested sample with cells for 15 hours, two microliters of Hoechst dye (0.03 ng/ml in PBS) was added. Two hours later, cells that were stained with Hoechst dye were examined under fluorescence microscope. […] The percentage of apoptotic cells was calculated by the following equation:
# The DNA condensation, DNA fragmentation and peripheral crescents of the nuclei are characteristics of a cell under apoptosis.
# [10] = test system: LNCaP (prostate cancer) cells; assay: Cell death (apoptosis) assay, LNCaP cells; assay type: cell-based, human; details: for induced apoptosis: 4 hours; for apoptotic activity relative to fetuin prepared by other methods, later conservative estimate: conservatively estimated
# Protocol: […] The free Zinc Acetate and Barium Acetate were removed by repetitive concentration. Fetuin was tested in LNCaP and HL-60 cells. […] Fetuin (in 10 μl PBS) at concentration of 100 ng/ml was added 3-4 hours after the cells were seeded.
# [11] = test system: CCD 39 Lu (normal lung fibroblast); assay: Apoptosis assay, CCD 39 Lu cells; assay type: cell-based, human
# [12] = test system: tumor cell line P388D1 (leukemia); assay: Effect of fetal fetuin on leukemia-bearing mice; assay type: in vivo, DBA/2 female mice
# Protocol: Forty DBA/2 female mice (17-20 grams; Simonsen Laboratories, Inc., Gilroy, Calif.) kept on a standard diet and water ad libitum were inoculated with tumor cell line P388D1 (ATCC cell line number CCL46). The mice were randomly segregated into groups of ten (10). Zinc-charged fetal fetuin (10 mg/ml) were intraperitoneally injected into group I at 0.002 ml/mouse, group II at 0.02 ml/mouse and group III at 0.2 ml/mouse. Group IV was the control group, which was injected with 0.5 ml of saline solution. The injections were continued for 10 days. Mortalities were recorded for 60 days. The results were expressed as the percentage increase in life span (ILS): […]
# [13] = test system: PC-3 (prostate cancer); assay: Apoptosis assay, PC-3 cells; assay type: cell-based; details: 50 μg/ml
# [14] = test system: MCF-7 (breast cancer) cells; assay: Apoptosis assay, MCF-7 cells; assay type: cell-based
# [15] = test system: Colo 205 (colon cancer); assay: Apoptosis assay, Colo 205 cells; assay type: cell-based; details: 50 μg/ml
# Protocol: The tested sample (10 μl) was added 3-4 hours after cells were seeded. After incubation of the tested sample with cells for 15 hours, two microliters of Hoechst dye (0.03 ng/ml in PBS) was added. Two hours later, cells that were stained with Hoechst dye were examined under fluorescence microscope. […] The percentage of apoptotic cells was calculated by the following equation:
# [16] = 100 ng/ml in PBS, 15 hours, Hoechst dye
molecule,measurement,setting,value
"zinc charged alpha 1-acid glycoprotein: alpha 1-acid glycoprotein from adult human serum, EDTA treated and charged with zinc acetate","apoptotic activity, panel of cell lines (in words)",[1],apoptotic activity was present
same,"apoptotic activity, panel of cell lines (in words)",[2],apoptotic activity was present
same,"apoptotic activity, panel of cell lines (in words)",[3],no activity was present; also recorded: no effect was seen
same,"apoptotic activity, panel of cell lines (in words)",[4],apoptotic activity was present
same,concentration at which apoptotic activity was induced (apoptotic threshold),[5],0.75 µM
same,"apoptotic activity, panel of cell lines (in words)",[6],no activity was present; also recorded: no effect was seen
same,"apoptotic activity, panel of cell lines (in words)",[7],apoptotic activity was present
same,cell death,"[7]; 5 μM, 4 hours",90%
same,cell death (in words),"[8]; 5 μM, six hours",did not cause cell death
same,"apoptotic activity, panel of cell lines (in words)",[8],no activity was present
same,apoptosis,"[9]; 5 μM, 4 hours",100%
same,apoptotic activity / morphology (in words),"[9]; 5 μM, 4 hours",resulted in the condensation and fragmentation of DNA
same,"apoptotic activity, panel of cell lines (in words)",[9],apoptotic activity was present
same,"apoptotic activity, panel of cell lines (in words)",[10],apoptotic activity was present
"zinc charged alpha 1-antitrypsin: alpha 1-antitrypsin (Sigma), EDTA treated and charged with zinc acetate","apoptotic activity, panel of cell lines (in words)",[1],induced apoptosis
same,"apoptotic activity, panel of cell lines (in words)",[2],induced apoptosis
same,"apoptotic activity, panel of cell lines (in words)",[4],induced apoptosis
same,"apoptotic activity, panel of cell lines (in words)",[11],no effect was seen
same,"apoptotic activity, panel of cell lines (in words)",[6],no effect was seen
same,"apoptotic activity, panel of cell lines (in words)",[8],no effect was seen
same,apoptotic activity / morphology (in words),"[9]; 5 μM, 4 hours",caused cell shrinkage and membrane blebbing
same,"apoptotic activity, panel of cell lines (in words)",[9],induced apoptosis
same,"apoptotic activity, panel of cell lines (in words)",[10],induced apoptosis
fetal fetuin: Zinc-charged fetal fetuin (10 mg/ml) injected intraperitoneally into mice,mice that survived more than 58 days,"[12]; 100 mg/Kg intraperitoneally for 10 days, untreated 100% dead after 24 days",80%
same,increased life span (ILS),[12]; leukemia-bearing mice treated with fetal fetuin,141%
B1,"apoptotic activity, panel of cell lines (in words)",[1],induced apoptosis
same,"apoptotic activity, panel of cell lines (in words)",[2],induced apoptosis
same,"apoptotic activity, panel of cell lines (in words)",[4],induced apoptosis
same,"apoptotic activity, panel of cell lines (in words)",[7],induced apoptosis
same,apoptotic activity / morphology (in words),"[9]; 5 μM, 4 hours",caused cell shrinkage and membrane blebbing
same,"apoptotic activity, panel of cell lines (in words)",[9],induced apoptosis
same,"apoptotic activity, panel of cell lines (in words)",[10],induced apoptosis
B2,induction of apoptosis (in words),[1]; 50 μg/ml,strongly induced apoptosis
same,"apoptosis, nuclear morphology (in words)",[2]; [16],showed the characteristics of apoptosis
same,induction of apoptosis (in words),[2]; 25 μg/ml,highly induced apoptosis
same,induction of apoptosis (in words),[2]; 50 μg/ml,strongly induced apoptosis
same,induction of apoptosis (in words),"[11]; 25 μg/ml, 15 hours",inactive in inducing apoptosis
same,induction of apoptosis (in words),[11]; 50 μg/ml,is not affected
same,induction of apoptosis (in words),[13],strongly induced apoptosis
same,"apoptosis, nuclear morphology (in words)",[10]; [16],showed the characteristics of apoptosis
same,induction of apoptosis (in words),[10]; 25 μg/ml,highly induced apoptosis
same,induced apoptosis,[10]; 25 μg/ml,up to 90%
same,induction of apoptosis (in words),[10]; 50 μg/ml,strongly induced apoptosis
same,induced apoptosis,[10]; approximately 50 μM,up to 90%
same,"apoptotic activity relative to fetuin prepared by other methods, later conservative estimate",[10]; listed as Fetuin as prepared in Section 4A,approximately 100 times
same,"apoptotic activity relative to fetuin prepared by other methods, later conservative estimate",[10]; listed as fetuin as prepared in Section 4A,more than one hundred times greater
same,"apoptotic activity relative to fetuin prepared by other methods, initial estimate",[10]; initially estimated,more than fifty thousand folds higher; also recorded: more than fifty thousand times higher
same,induction of apoptosis (in words),[14]; 25 μg/ml,highly induced apoptosis
same,induction of apoptosis (in words),[14]; 50 μg/ml,strongly induced apoptosis
same,induction of apoptosis (in words),[15],strongly induced apoptosis
